Literature values, collected in US8911966B2, “Efficient astaxanthin production strains derived from Haematococcus pluvialis” (Cognis IP Management GmbH, priority 2007, dated 2014).

Conditions: versus α-tocopherol

## CC1=C(/C=C/C(C)=C/C=C/C(C)=C/C=C/C=C(C)/C=C/C=C(C)/C=C/C2=C(C)C(=O)C(O)CC2(C)C)C(C)(C)CC(O)C1=O (stereo not drawn) [astaxanthin, 3,3′-dihydroxy-β,β-carotene-4,4′-dione]
  antioxidant activities relative to α-tocopherol (vitamin E): over 500 times
